Paper PMC7442133, “Reduced treatment frequencies with bumped kinase inhibitor 1369 are effective against porcine cystoisosporosis” (International Journal for Parasitology: Drugs and Drug …, 2020)

What was measured:
[1] = set-up: species or system piglets; conditions: in vivo
Protocol: In experiment II, additional fecal samples were collected from piglets which shed oocysts after treatment with BKI 1369. Fecal DNA preparation was carried out by established procedures. PCR assays were used for the amplification of the genomic DNA fragments encoding CsCDPK1. PCR assays used primers upstream (166 and 91 base pairs of the start codon) and downstream (89 and 39 base pairs) of the CsCDPK1 stop codon fragment to generate templates for a subsequent nested run. Nested PCR amplification of the 5955 base pair fragment was achieved using the primer pair LIC_CsCDPK_Fwd: […] and LIC_CsCDPK_Rev: […]. PCR amplicons were cloned into TA TOPO 2 vectors (Invitrogen, Carlsbad, California, USA) and sequenced at GENEWIZ Inc. (Seattle, USA) to confirm the presence or absence of mutations that could affect drug sensitivity. Moreover, two piglets from each group were sacrificed at the end of the study (SD 29; 24 days after treatment) and tissue samples (liver, muscle, kidney, backfat, jejunum) were collected and processed similar to the fecal samples in experiment I, except that 20 nM propranolol was used as an internal standard instead of 100 μM, to determine residues of BKI 1369 and its metabolites.
(§1) Tissue and feces from vehicle control treated piglets were used as blanks or standards. Calibration curves for BKI 1369, BKI 1318, and BKI 1817 were prepared by adding 2 μL BKI in dimethylsulfoxide (DMSO) to 18 μL tissue or feces controls to generate nominal concentrations of 0.004, 0.008, 0.02, 0.04, 0.08, 0.2, 0.4, 0.8, 2, 5, 10, and 20 μM. Calibration curves were generated separately for each tissue type and feces.
(§2) 5 μL of tissue homogenate curves and samples were added to tubes that contained 95 μL of 80:20 acetonitrile: water. As an internal standard, propranolol was added to each sample to a final concentration of 20 nM. Samples were dried to completion using a miVac Duo Concentrator (SP Scientific, Pennsylvania, USA) at 35 °C. Sample processing for feces was similar but utilized a slightly different process to concentrate the sample as explained in the methods. Dried Samples were sealed and shipped to the University of Washington for LC-MS/MS analysis.

[2] = Fecal drug kinetics: BKI concentrations in pooled feces by LC-MS/MS; format: in vivo, piglets
Protocol: Additionally, to determine exposure to BKI 1369 and its metabolites, BKI 1318 and BKI 1817, pooled fecal samples per group were collected before treatment (−24 h), 2, 24 and 48 h after treatment and at the end of the study (SD 29; experiment I). Approximately 1 g of feces was soaked overnight in 3 ml phosphate buffered saline (PBS, pH 7.4). The following day, 12 ml of acetonitrile containing 100 μM propanolol as an internal standard was added and the mixture was thoroughly vortexed and centrifuged at 1000×g for 30 min. Clear supernatant was then transferred to Eppendorf tubes and concentrated in a miVac® Duo Concentrator (SP Scientific, Pennsylvania, USA) at 35 °C. Control/blank samples spiked with known amounts of target analyte were processed in tandem to provide a standard curve. The concentrated samples were shipped to the University of Washington and were stored at −20 °C until analysis by liquid chromatography-tandem mass spectrometry (LC-MS/MS) to determine fecal pharmacokinetics. All LC-MS/MS analyses were carried out on a Waters Acquity UPLC coupled with a Xevo TQS Micro and analyzed using MassLynx software (Waters Corporation, Milford, MA, USA). Extraction and LC-MS/MS conditions are described in detail in the Supplementary File S1.
as §1, §2

[3] = Group A (20 mg BKI 1369/kg BW; 0 dpi), SD 2, −24 h (before treatment)
[4] = Group A (20 mg BKI 1369/kg BW; 0 dpi), SD 3, 2 h post first-dose
[5] = Group A (20 mg BKI 1369/kg BW; 0 dpi), SD 4, 24 h post first-dose
[6] = Group A (20 mg BKI 1369/kg BW; 0 dpi), SD 5, 48 h post first-dose
[7] = Group A (20 mg BKI 1369/kg BW; 0 dpi), SD 29, 624 h post first-dose
[8] = Group A: single treatment 20 mg BKI 1369/kg on SD 3, pooled feces
[9] = Group A: single treatment 20 mg BKI 1369/kg on SD 3, pooled feces, post dose
[10] = Group B (20 mg BKI 1369/kg BW; 2 dpi), SD 4, −24 h (before treatment)
[11] = Group B (20 mg BKI 1369/kg BW; 2 dpi), SD 5, 2 h post first-dose
[12] = Group B (20 mg BKI 1369/kg BW; 2 dpi), SD 6, 24 h post first-dose
[13] = Group B (20 mg BKI 1369/kg BW; 2 dpi), SD 7, 48 h post first-dose
[14] = Group B (20 mg BKI 1369/kg BW; 2 dpi), SD 29, 576 h post first-dose
[15] = Group B: single treatment 20 mg BKI 1369/kg on SD 5, pooled feces
[16] = Group B: single treatment 20 mg BKI 1369/kg on SD 5, pooled feces, post-dose
[17] = Group C (20 mg BKI 1369/kg BW; 2 and 4 dpi), SD 4, −24 h (before treatment)
[18] = Group C (20 mg BKI 1369/kg BW; 2 and 4 dpi), SD 5, 2 h post first-dose
[19] = Group C (20 mg BKI 1369/kg BW; 2 and 4 dpi), SD 6, 24 h post first-dose
[20] = Group C (20 mg BKI 1369/kg BW; 2 and 4 dpi), SD 7, 48/2 h post 2nd dose
[21] = Group C (20 mg BKI 1369/kg BW; 2 and 4 dpi), SD 8, 72/24 h post 2nd dose
[22] = Group C (20 mg BKI 1369/kg BW; 2 and 4 dpi), SD 9, 96/48 h post 2nd dose
[23] = Group C (20 mg BKI 1369/kg BW; 2 and 4 dpi), SD 29, 576/528 h post 2nd dose
[24] = Group C: 20 mg BKI 1369/kg on SD 5 and SD 7, pooled feces, post first-dose

Row | SMILES | Concentration in pooled fecal samples [2, 3] | Concentration in pooled fecal samples [2, 4] | Concentration in pooled fecal samples [2, 5] | Concentration in pooled fecal samples [2, 6] | Concentration in pooled fecal samples [2, 7] | Cmax [2, 8] | Fecal Tmax [2, 9] | Concentration in pooled fecal samples [2, 10] | Concentration in pooled fecal samples [2, 11] | Concentration in pooled fecal samples [2, 12] | Concentration in pooled fecal samples [2, 13] | Concentration in pooled fecal samples [2, 14] | Cmax [2, 15] | Fecal Tmax [2, 16] | Concentration in pooled fecal samples [2, 17] | Concentration in pooled fecal samples [2, 18] | Concentration in pooled fecal samples [2, 19] | Concentration in pooled fecal samples [2, 20] | Concentration in pooled fecal samples [2, 21] | Concentration in pooled fecal samples [2, 22] | also measured
1 | CCOc1ccc2cc(-c3nn(CC4CCNCC4)c4ncnc(N)c34)ccc2n1 [BKI 1318] | 0 nM | 0 nM | 300 nM | 400 nM | 0 nM | 400 nM | 48 h | 0 nM | 0 nM | 0 nM | 700 nM | 0 nM | 700 nM | 48 h | 0 nM | 0 nM | 300 nM | 1900 nM | 3600 nM | 7000 nM | Residue in liver [1]: -Samples above LoQ BKI 1318: N/A -Samples above background, but below LoQ BKI 1318: liver from piglet 304 and muscle from piglet 302; Concentration in pooled fecal samples [2, 23]: 300 nM; Cmax ([2]; Group C: 20 mg BKI 1369/kg on SD 5 and SD 7, pooled feces): 7000 nM; Fecal Tmax [2, 24]: 96 h; Excretion via the feces (in words) ([2]; after oral BKI 1369, piglets): relatively low excretion via the feces
2 | CCOc1ccc2cc(-c3nn(CC4CCN(C)CC4)c4ncnc(N)c34)ccc2n1 [BKI 1369] | 0 nM | 800 nM | 8100 nM | 5500 nM | 0 nM | 8100 nM | 24 h | 0 nM | 0 nM | 800 nM | 3000 nM | 0 nM | 3000 nM | 48 h | 0 nM | 0 nM | 4500 nM | 37000 nM | 19700 nM | 29200 nM | Quantifiable residue values, all tissue types [1]: below 0.2 μM; Residue in fat [1]: above background, but below LoQ; Residue in jejunum [1]: above background, but below LoQ; Concentration in pooled fecal samples [2, 23]: 0 nM; Fecal Tmax [2, 24]: 48 h; Time of fecal peak, in general ([2]; all groups, metabolite levels continued to rise beyond 48 h): 24 to 48 h
